According to patent publication US10954214B2 (Janssen Pharmaceutica NV, priority 2016, dated 2021):

Legend:
[1] = biological target: full-length MALT1 protein (Strep-MALT1(1-824)-His) (Homo sapiens (Human), UniProt Q9UDY8); assay: MALT1 Biochemical Protease Assay (Ac-LRSR-AMC substrate); settings: 10 nM FL MALT1, 200 μM Ac-LRSR-AMC, 4 h at RT; read-out: MALT1_Biochemical activity (Ac-LRSR-amc) IC50
Method: The tetrapeptide LRSR is coupled to AMC (7-amino-4-methylcoumarin) and provides a quenched, fluorescent substrate for the MALT1 protease (SM Biochemicals). […] Test compound concentrations ranged from 30 μM to 0.5 nM using 11 dilution steps (1:3). Background signal was measured from control wells containing assay buffer without enzyme which functions as low control (LC). High control (HC) values were generated using the reaction with enzyme but no compound treatment. Compounds were pre-incubated with MALT1 enzyme for 50 minutes at RT. […] The reaction was subsequently incubated for 4 h at RT and fluorescence was measured.
LC=Median of the low control values
An estimate of the slope of the plot in terms of the Hill coefficient was also obtained. IC50 Calculation:
[formula] With • UB=upper bound • LB=lower bound Used in “Lexis Dose Response Curve Fitting” Version 1.0.

[2] = system: IL6 secretion by TMD8 ABC-DLBCL cells; assay: Human IL6 Mesoscale assay (TMD-8); format: cell-based; settings: Homo sapiens, TMD8; TMD-8 cells, 24 h
Method: (§1) NFKB signaling regulates the secretion of multiple cytokines, including IL6 and IL10. Secretion of the cytokines IL6 and IL10 by TMD8 or OCI-LY3 ABC-DLBCL cells was measured using a mesoscale assay. Inhibition of NFKB signaling by MALT1 or BTK inhibitors results in a decrease of IL6/10 secretion.
(§2) TMD8 or OCI-LY3 cells were propagated in RPMI-1640 (Sigma Aldrich) supplemented with 10% fetal bovine serum (HyClone), 1 mM sodium pyruvate (Invitrogen), 2 mM L-glutamine (Sigma Aldrich) and 1% PenStrep (Sigma Aldrich). Cell passage number should not exceed 30. Cells should be kept between 0.5-2.5 million cells per mL during culturing and cells should be supplemented every 2-3 days with fresh 50 μM beta-mercaptoenthanol. No beta-mercaptoethanol was used during the mesoscale assay.
(§3) For the Mesoscale assay, 100,000 TMD8 or OCI-LY3 cells were seeded per well into black-colored 96-well plates with clear bottom (Corning #3904) and test compounds were added in 9 dilution steps (1:2) ranging from 15 μM to 58.6 nM (final DMSO concentration 0.3%). DMSO control wells were used to determine the maximum signal (High Control (HC)). Treatment with the BTK inhibitor RN486 in a dose range from 30 nM to 131 pM (9 dilutions of 1:2) served as a positive control for NFKB pathway inhibition and was used to determine the maximum inhibition (Low Control (LC)). Compounds and cells were incubated for 24 h at 37° C. and 5% CO2 (assay volume is 150 μL). After 24 h of incubation 50 μL of the supernatant was transferred to a MSD plate (V-Plex Proinflammation Panel 1 (human) kit, Mesoscale (MSD)) and incubated for 2 h with vigorous shaking (600 rpm) at room temperature. Following incubation, plates were washed 3× with PBS+0.05% Tween-20 and 25 μL detection antibody solution (IL6 & IL10 antibodies in diluent 3 (MSD)) was added per well followed by 2 h of incubation with vigorous shaking (600 rpm) at room temperature. After 3× washes with PBS+0.05% Tween-20, plates were incubated with 150 μL 2× Read Buffer T and read on SECTOR imager.

[3] = system: IL10 secretion by TMD8 ABC-DLBCL cells; assay: Human IL10 Mesoscale assay (TMD-8); format: cell-based; settings: Homo sapiens, TMD8; TMD-8 cells, 24 h
Method: as §1, §2, §3

full-length MALT1 protein (Strep-MALT1(1-824)-His), sequence (Q9UDY8 whole entry): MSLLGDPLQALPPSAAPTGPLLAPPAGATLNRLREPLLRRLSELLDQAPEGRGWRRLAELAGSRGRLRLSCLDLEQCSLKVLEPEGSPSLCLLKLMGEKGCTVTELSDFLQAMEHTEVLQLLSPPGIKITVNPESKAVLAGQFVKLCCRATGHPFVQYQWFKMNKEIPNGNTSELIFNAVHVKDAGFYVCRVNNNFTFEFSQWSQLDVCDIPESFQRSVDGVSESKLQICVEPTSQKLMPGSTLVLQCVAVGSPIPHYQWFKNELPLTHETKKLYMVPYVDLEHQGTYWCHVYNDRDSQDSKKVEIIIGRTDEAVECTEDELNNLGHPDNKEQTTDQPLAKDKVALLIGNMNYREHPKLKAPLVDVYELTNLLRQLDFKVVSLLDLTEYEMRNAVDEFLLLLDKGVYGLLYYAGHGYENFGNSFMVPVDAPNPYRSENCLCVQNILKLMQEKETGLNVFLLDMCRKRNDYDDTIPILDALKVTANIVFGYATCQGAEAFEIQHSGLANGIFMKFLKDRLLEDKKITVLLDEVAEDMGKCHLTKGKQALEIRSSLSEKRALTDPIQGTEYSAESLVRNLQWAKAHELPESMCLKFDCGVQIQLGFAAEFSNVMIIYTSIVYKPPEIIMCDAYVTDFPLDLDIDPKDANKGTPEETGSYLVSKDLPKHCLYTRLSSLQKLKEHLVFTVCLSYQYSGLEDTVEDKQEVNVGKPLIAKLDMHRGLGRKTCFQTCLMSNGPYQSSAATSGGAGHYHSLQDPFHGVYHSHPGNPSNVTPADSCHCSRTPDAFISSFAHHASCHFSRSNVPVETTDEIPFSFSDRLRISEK

| IC50 [1] | IC50 [2] | IC50 [3] | Compound |
| --- | --- | --- | --- |
| 214 nM | 107 nM | 17 nM | O=C(Nc1cnc(-n2nccn2)c(Cl)c1)c1cnn(-c2ccc(C(F)F)c3ncccc23)c1C(F)(F)F [Cpd 397, N-(5-chloro-6-(2H-1,2,3-triazol-2-yl)pyridin-3-yl)-1-(8-(difluoromethyl)quinolin-5-yl)-5-(trifluoromethyl)-1H-pyrazole-4-carboxamide] |
| 209 nM | 126 nM | 47 nM | O=C(Nc1cnc(-n2nccn2)c(Cl)c1)c1cnn(-c2cccc3c(C(F)F)nccc23)c1C(F)(F)F [Cpd 400, N-(5-chloro-6-(2H-1,2,3-triazol-2-yl)pyridin-3-yl)-1-(1-(difluoromethyl)isoquinolin-5-yl)-5-(trifluoromethyl)-1H-pyrazole-4-carboxamide] |
| 316 nM | 52 nM | 49 nM | O=C(Nc1cnc(-n2nccn2)c(Cl)c1)c1cnn(-c2cncc3sc(C(F)F)cc23)c1C(F)(F)F [Cpd 399, N-(5-chloro-6-(2H-1,2,3-triazol-2-yl)pyridin-3-yl)-1-(2-(difluoromethyl)thieno[2,3-c]pyridin-4-yl)-5-(trifluoromethyl)-1H-pyrazole-4-carboxamide] |
| 12300 nM | 1260 nM | 617 nM | O=C(Nc1ccnc(N2CCOCC2)c1)c1cnn(-c2cccc3c(=O)[nH]ccc23)c1C(F)(F)F [Cpd 361, N-(2-morpholinopyridin-4-yl)-1-(1-oxo-1,2-dihydroisoquinolin-5-yl)-5-(trifluoromethyl)-1H-pyrazole-4-carboxamide] |
| 3470 nM | 72 nM | 28 nM | O=C(Nc1cnc(-n2nccn2)c(Cl)c1)c1cnn(-c2cccc3nc(C(F)F)ccc23)c1C(F)(F)F [Cpd 395, N-(5-chloro-6-(2H-1,2,3-triazol-2-yl)pyridin-3-yl)-1-(2-(difluoromethyl)quinolin-5-yl)-5-(trifluoromethyl)-1H-pyrazole-4-carboxamide] |
| 1660 nM | 575 nM | 832 nM | CN1CCN(c2ncc(NC(=O)c3cnn(-c4cccc5ncccc45)c3C(F)(F)F)cc2C#N)CC1 [Cpd 224, N-(5-cyano-6-(4-methylpiperazin-1-yl)pyridin-3-yl)-1-(quinolin-5-yl)-5-(trifluoromethyl)-1H-pyrazole-4-carboxamide] |
| 54 nM | 95 nM | 93 nM | N#Cc1ncc(-n2ncc(C(=O)Nc3cnc(-n4nccn4)c(Cl)c3)c2C(F)(F)F)c2ccsc12 [Cpd 415, N-(5-chloro-6-(2H-1,2,3-triazol-2-yl)pyridin-3-yl)-1-(7-cyanothieno[2,3-c]pyridin-4-yl)-5-(trifluoromethyl)-1H-pyrazole-4-carboxamide] |
| 5370 nM | 912 nM | 339 nM | Cn1ccc2ccc(NC(=O)c3cnn(-c4cccc5ncccc45)c3C(F)(F)F)cc2c1=O [Cpd 216, N-(2-methyl-1-oxo-1,2-dihydroisoquinolin-7-yl)-1-(quinolin-5-yl)-5-(trifluoromethyl)-1H-pyrazole-4-carboxamide] |
| 2140 nM | 851 nM | 468 nM | N#Cc1cc(NC(=O)c2cnn(-c3cc(Cl)nc4ccccc34)c2C(F)(F)F)cnc1-n1nccn1 [Cpd 220, 1-(2-chloroquinolin-4-yl)-N-(5-cyano-6-(2H-1,2,3-triazol-2-yl)pyridin-3-yl)-5-(trifluoromethyl)-1H-pyrazole-4-carboxamide] |
| 4900 nM | 537 nM | 269 nM | O=C1COc2ccc(NC(=O)c3cnn(-c4cccc5ncccc45)c3C(F)(F)F)cc2N1 [Cpd 217, N-(3-oxo-3,4-dihydro-2H-benzo[b][1,4]oxazin-6-yl)-1-(quinolin-5-yl)-5-(trifluoromethyl)-1H-pyrazole-4-carboxamide] |
| 11000 nM | 1020 nM | 513 nM | CN1CCc2ccc(NC(=O)c3cnn(-c4cccc5ncccc45)c3C(F)(F)F)cc2C1=O [Cpd 212, N-(2-methyl-1-oxo-1,2,3,4-tetrahydroisoquinolin-7-yl)-1-(quinolin-5-yl)-5-(trifluoromethyl)-1H-pyrazole-4-carboxamide] |
| 851 nM | 263 nM | 141 nM | O=C(O)c1cn(-c2ncc(NC(=O)c3cnn(-c4cccc5ncccc45)c3C(F)(F)F)cc2Cl)nn1 [Cpd 234, 1-(3-chloro-5-(1-(quinolin-5-yl)-5-(trifluoromethyl)-1H-pyrazole-4-carboxamido)pyridin-2-yl)-1H-1,2,3-triazole-4-carboxylic acid] |
| 1230 nM | 407 nM | 794 nM | Cn1ncc2cc(NC(=O)c3cnn(-c4cccc5ncccc45)c3C(F)(F)F)cnc21 [Cpd 225, N-(1-methyl-1H-pyrazolo[3,4-b]pyridin-5-yl)-1-(quinolin-5-yl)-5-(trifluoromethyl)-1H-pyrazole-4-carboxamide] |
| 13 nM | 46 nM | 50 nM | C[C@H](O)c1ncc(-n2ncc(C(=O)Nc3cnc(-n4nccn4)c(Cl)c3)c2C(F)(F)F)c2ccccc12 (single isomer, unassigned) [Cpd 443, (*S)—N-(5-chloro-6-(2H-1,2,3-triazol-2-yl)pyridin-3-yl)-1-(1-(1-hydroxyethyl)isoquinolin-4-yl)-5-(trifluoromethyl)-1H-pyrazole-4-carboxamide] |
| 35 nM | 1660 nM | 2290 nM | Cc1cnc2cccc(-n3ncc(C(=O)Nc4cnc(-n5nccn5)c(Cl)c4)c3C(F)(F)F)n12 [Cpd 211, N-(5-chloro-6-(2H-1,2,3-triazol-2-yl)pyridin-3-yl)-1-(3-methylimidazo[1,2-a]pyridin-5-yl)-5-(trifluoromethyl)-1H-pyrazole-4-carboxamide] |
| 138 nM | 3470 nM | 1180 nM | Cc1cn(-c2nc(C)c(NC(=O)c3cnn(-c4cccc5c(=O)[nH]ccc45)c3C(F)(F)F)cc2Cl)nn1 [Cpd 362, N-(5-chloro-2-methyl-6-(4-methyl-1H-1,2,3-triazol-1-yl)pyridin-3-yl)-1-(1-oxo-1,2-dihydroisoquinolin-5-yl)-5-(trifluoromethyl)-1H-pyrazole-4-carboxamide] |
| 19 nM | 102 nM | 132 nM | N#Cc1cc(NC(=O)c2cnn(-c3ccnc4c(F)cccc34)c2C(F)(F)F)cnc1-n1nccn1 [Cpd 92, N-(5-cyano-6-(2H-1,2,3-triazol-2-yl)pyridin-3-yl)-1-(8-fluoroquinolin-4-yl)-5-(trifluoromethyl)-1H-pyrazole-4-carboxamide] |
| 115 nM | 46 nM | 50 nM | O=C(Nc1cnc(-n2nccn2)c(Cl)c1)c1cnn(-c2cccc3ncccc23)c1Br [Cpd 188, 5-Bromo-N-(5-chloro-6-(2H-1,2,3-triazol-2-yl)pyridin-3-yl)-1-(quinolin-5-yl)-1H-pyrazole-4-carboxamide] |
| 6030 nM | 2040 nM | 2240 nM | CN1C(=O)COc2ccc(NC(=O)c3cnn(-c4cccc5ncccc45)c3C(F)(F)F)cc21 [Cpd 214, N-(4-methyl-3-oxo-3,4-dihydro-2H-benzo[b][1,4]oxazin-6-yl)-1-(quinolin-5-yl)-5-(trifluoromethyl)-1H-pyrazole-4-carboxamide] |
| 91 nM | 912 nM | 2630 nM | COCc1ncc(-n2ncc(C(=O)Nc3cnc(-n4nccn4)c(Cl)c3)c2C(F)(F)F)c2ccccc12 [Cpd 404, N-(5-chloro-6-(2H-1,2,3-triazol-2-yl)pyridin-3-yl)-1-(1-(methoxymethyl)isoquinolin-4-yl)-5-(trifluoromethyl)-1H-pyrazole-4-carboxamide] |
| 1740 nM | 6170 nM | 3890 nM | Cc1cn2c(-n3ncc(C(=O)Nc4ccnc(C(F)(F)F)c4)c3C(F)(F)F)cccc2n1 [Cpd 206, 1-(2-methylimidazo[1,2-a]pyridin-5-yl)-5-(trifluoromethyl)-N-(2-(trifluoromethyl)pyridin-4-yl)-1H-pyrazole-4-carboxamide] |
